Read-outs that look alike come from different tables or passages of the source.
Target: T1, F508delCFTR (Homo sapiens, UniProt P13569, DEL508-508)
T1 construct: expressed in transfected cells; host or cells: CFBE41o- human lung-derived epithelial cells (CFBE4lo-F508delCFTR-HRP), doxycycline-inducible
Experiment: Cell Surface Expression-Horse Radish Peroxidase (CSE-HRP) Assay;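 on Maximum % activity (with co-corrector): co-corrector and positive control are both the same reference corrector at 2 µM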;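 on Maximum % activity (without co-corrector): percent of the 2 µM on-plate positive control corrector response above DMSO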
Type: cell-based
Conditions: for Emax / Maximum % activity (with co-corrector): maximum at any tested concentration, normalized to on-plate positive control; for Emax: read-out: Maximum % activity (without co-corrector); for Maximum % activity (with co-corrector): with co-corrector (2 μM)

[1] = test compound without co-corrector
[2] = test compound without co-corrector, read-out: EC50 (without co-corrector)
[3] = with co-corrector (2 μM of 3-[(2R,4R)-4-({[1-(2,2-difluoro-1,3-benzodioxol-5-yl)cyclopropyl]carbonyl}amino)-7-methoxy-3,4-dihydro-2H-chromen-2-yl]benzoic acid), read-out: EC50 (with co-corrector)

T1 sequence (P13569 with tags, fused parts or gaps DEL508-508): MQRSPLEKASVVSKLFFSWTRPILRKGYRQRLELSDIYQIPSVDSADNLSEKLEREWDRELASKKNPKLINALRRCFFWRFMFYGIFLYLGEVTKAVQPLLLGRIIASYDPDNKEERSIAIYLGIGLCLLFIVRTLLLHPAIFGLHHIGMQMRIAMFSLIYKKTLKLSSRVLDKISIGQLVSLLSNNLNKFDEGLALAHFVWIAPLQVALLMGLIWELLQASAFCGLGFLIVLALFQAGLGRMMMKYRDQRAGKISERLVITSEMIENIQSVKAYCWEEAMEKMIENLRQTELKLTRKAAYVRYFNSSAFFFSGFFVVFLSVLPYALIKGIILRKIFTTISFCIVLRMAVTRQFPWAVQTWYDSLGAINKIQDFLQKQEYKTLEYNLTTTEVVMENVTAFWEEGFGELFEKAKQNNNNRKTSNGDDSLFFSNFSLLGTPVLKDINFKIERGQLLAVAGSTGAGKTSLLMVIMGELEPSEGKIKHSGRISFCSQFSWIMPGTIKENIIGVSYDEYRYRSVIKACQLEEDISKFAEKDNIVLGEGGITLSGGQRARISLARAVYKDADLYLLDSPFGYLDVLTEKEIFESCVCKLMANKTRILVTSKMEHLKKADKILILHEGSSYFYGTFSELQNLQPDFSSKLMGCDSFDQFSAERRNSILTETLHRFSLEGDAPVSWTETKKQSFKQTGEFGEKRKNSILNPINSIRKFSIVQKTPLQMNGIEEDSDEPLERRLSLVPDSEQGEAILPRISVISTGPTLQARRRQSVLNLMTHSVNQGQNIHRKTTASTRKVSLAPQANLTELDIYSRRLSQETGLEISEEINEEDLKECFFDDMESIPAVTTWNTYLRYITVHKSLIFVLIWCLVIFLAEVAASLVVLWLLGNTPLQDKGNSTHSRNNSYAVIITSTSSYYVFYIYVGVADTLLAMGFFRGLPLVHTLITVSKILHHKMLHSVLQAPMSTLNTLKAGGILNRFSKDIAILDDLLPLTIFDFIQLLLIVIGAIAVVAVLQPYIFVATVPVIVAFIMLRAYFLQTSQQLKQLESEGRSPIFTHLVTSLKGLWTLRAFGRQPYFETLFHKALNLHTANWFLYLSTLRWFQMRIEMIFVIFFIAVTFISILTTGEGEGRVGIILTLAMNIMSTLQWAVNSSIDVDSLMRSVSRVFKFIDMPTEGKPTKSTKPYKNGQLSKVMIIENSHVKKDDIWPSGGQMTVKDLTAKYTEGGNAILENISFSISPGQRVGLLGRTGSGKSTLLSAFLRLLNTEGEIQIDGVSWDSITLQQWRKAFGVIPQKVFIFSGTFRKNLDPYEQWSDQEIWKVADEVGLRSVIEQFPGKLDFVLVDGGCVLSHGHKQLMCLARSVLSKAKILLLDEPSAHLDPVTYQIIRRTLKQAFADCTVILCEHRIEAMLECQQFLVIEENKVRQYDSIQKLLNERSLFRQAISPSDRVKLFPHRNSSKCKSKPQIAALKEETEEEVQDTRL

Row | Emax [1] [%] | EC50 [2] [nM] | EC50 [3] [nM] | Maximum % activity (with co-corrector) | Compound
1 | 100 to 200 | 1000 to 10000 | < 1000 | +++ (≥350) | COc1ccc(C(C)(C)C)cc1CN[C@H]1[C@H](C(C)(C)C)[C@@H](C(=O)O)N(C(=O)Cc2ccc(Cl)cc2)[C@H]1c1ccccc1 [III-166]
2 | > 200 | 1000 to 10000 | < 1000 | +++ (≥350) | COc1ccc(C(C)(C)C)cc1CN[C@H]1[C@H](C(C)(C)C)[C@@H](C(=O)O)N(C(=O)CC2CCCCC2)[C@H]1c1ccccc1 [III-167]
3 | > 200 | < 1000 | < 1000 | +++ (≥350) | CCC(C)c1ccc(OC)c(CN[C@H]2[C@H](C(C)(C)C)[C@@H](C(=O)O)N(C(=O)C3CCCCC3)[C@H]2c2ccccc2)c1 (some centres unmarked) [III-168]
4 | > 200 | < 1000 | < 1000 | +++ (≥350) | COc1ccc(CC2CCCCC2)cc1CN[C@H]1[C@H](C(C)(C)C)[C@@H](C(=O)O)N(C(=O)C2CCCCC2)[C@H]1c1ccccc1 [III-169]
5 | > 200 | < 1000 | < 1000 | +++ (≥350) | CCC(CC)Cc1ccc(OC)c(CN[C@H]2[C@H](C(C)(C)C)[C@@H](C(=O)O)N(C(=O)C3CCCCC3)[C@H]2c2ccccc2)c1 [III-170]
6 | > 200 | 1000 to 10000 | < 1000 | +++ (≥350) | COc1ccc(C(C)c2ccccc2)cc1CN[C@H]1[C@H](C(C)(C)C)[C@@H](C(=O)O)N(C(=O)C2CCCCC2)[C@H]1c1ccccc1 (some centres unmarked) [III-171]
7 | 100 to 200 | 1000 to 10000 | < 1000 | +++ (≥350) | COc1ccc(C(C)(C)C)cc1CN[C@H]1[C@H](C(C)(C)C)[C@@H](C(=O)O)N(C(=O)Cc2ccc(F)c(F)c2)[C@H]1c1ccccc1 [III-172]
8 | > 200 | 1000 to 10000 | < 1000 | +++ (≥350) | COc1ccc(C(C)(C)C)cc1CN[C@H]1[C@H](C(C)(C)C)[C@@H](C(=O)O)N(C(=O)Cc2ccc(F)cc2F)[C@H]1c1ccccc1 [III-173]
9 | > 200 | < 1000 | < 1000 | +++ (≥350) | COc1ccc(C(C)(C)C)cc1CN[C@H]1[C@H](C(C)(C)C)[C@@H](C(=O)O)N(C(=O)C2CCC(C)CC2)[C@H]1c1ccccc1 (some centres unmarked) [III-174]
10 | > 200 | < 1000 | < 1000 | +++ (≥350) | COc1ccc(C(C)(C)C)cc1CN[C@H]1[C@H](C(C)(C)C)[C@@H](C(=O)O)N(C(=O)C2CCCC(C)C2)[C@H]1c1ccccc1 (some centres unmarked) [III-175]
11 | < 100 | > 10000 | > 10000 | + (<150) | COc1ccc(C(C)(C)C)cc1CN[C@H]1[C@H](C(C)(C)C)[C@@H](C(=O)O)N(C(=O)c2cn(C)cc(C)c2=O)[C@H]1c1ccccc1 [III-176]
12 | < 100 | 1000 to 10000 | 1000 to 10000 | ++ (≥150 and <350) | COc1ccc(C(C)(C)C)cc1CN[C@H]1[C@H](C(C)(C)C)[C@@H](C(=O)O)N(C(=O)c2cn(C)c3ccccc23)[C@H]1c1ccccc1 [III-177]
13 | 100 to 200 | 1000 to 10000 | 1000 to 10000 | +++ (≥350) | COc1ccc(C(C)(C)C)cc1CN[C@H]1[C@H](C(C)(C)C)[C@@H](C(=O)O)N(C(=O)c2cc(F)cc3c2OCOC3)[C@H]1c1ccccc1 [III-178]
14 | > 200 | 1000 to 10000 | < 1000 | +++ (≥350) | COc1ccc(C(C)(C)C)cc1CN[C@H]1[C@H](C(C)(C)C)[C@@H](C(=O)O)N(C(=O)C2CCOC(C(C)C)C2)[C@H]1c1ccccc1 (some centres unmarked) [III-179]
15 | < 100 | > 10000 | 1000 to 10000 | ++ (≥150 and <350) | CC(C)(C)[C@H]1[C@H](NCc2cc3ccccc3nc2O)[C@H](c2ccccc2)N(C(=O)C2CCCCC2)[C@@H]1C(=O)O [III-180]
16 | > 200 | < 1000 | < 1000 | +++ (≥350) | COc1ccc(C23CC4CC(CC(C4)C2)C3)cc1CN[C@H]1[C@H](C(C)(C)C)[C@@H](C(=O)O)N(C(=O)C2CCCCC2)[C@H]1c1cccnc1N(C)C [III-183]
17 | < 100 | 1000 to 10000 | 1000 to 10000 | ++ (≥150 and <350) | COc1ccc(C(F)(F)F)cc1CN[C@H]1[C@H](C(C)(C)C)[C@@H](C(=O)O)N(C(=O)[C@H]2CCCC(F)(F)C2)[C@H]1c1ccccc1 [III-185]
18 | < 100 | 1000 to 10000 | 1000 to 10000 | ++ (≥150 and <350) | COc1ccc(-c2cnn(C)c2)cc1CN[C@H]1[C@H](C(C)(C)C)[C@@H](C(=O)O)N(C(=O)C2CCCCC2)[C@H]1c1ccccc1 [III-186]
19 | < 100 | 1000 to 10000 | 1000 to 10000 | ++ (≥150 and <350) | COc1ccc(-c2cnn(C3CC3)c2)cc1CN[C@H]1[C@H](C(C)(C)C)[C@@H](C(=O)O)N(C(=O)C2CCCCC2)[C@H]1c1ccccc1 [III-187]
20 | < 100 | 1000 to 10000 | 1000 to 10000 | ++ (≥150 and <350) | COc1ncc(C(F)(F)F)cc1CN[C@H]1[C@H](C2(C)CC2)[C@@H](C(=O)O)N(C(=O)C2CCCCC2)[C@H]1c1ccccc1 [III-189]
21 | > 200 | 1000 to 10000 | < 1000 | +++ (≥350) | COc1ccc(C(C)(C)C)cc1CN[C@H]1[C@H](C(C)(C)C)[C@@H](C(=O)O)N(C(=O)C(C)Oc2cc(C)cc(C)c2)[C@H]1c1ccccc1 (some centres unmarked) [III-190]
22 | > 200 | < 1000 | < 1000 | +++ (≥350) | COc1ccc(C(C)(C)C)cc1CN[C@H]1[C@H](C(C)(C)C)[C@@H](C(=O)O)N(C(=O)C2CCc3ccccc3C2)[C@H]1c1ccccc1 (some centres unmarked) [III-191]
23 | > 200 | < 1000 | < 1000 | +++ (≥350) | COc1ccc(C(C)(C)C)cc1CN[C@H]1[C@H](C(C)(C)C)[C@@H](C(=O)O)N(C(=O)C2C3C2[C@H]2CC[C@@H]3C2)[C@H]1c1ccccc1 (some centres unmarked) [III-192]
24 | > 200 | < 1000 | < 1000 | +++ (≥350) | COc1ccc(C(C)(C)C)cc1CN[C@H]1[C@H](C(C)(C)C)[C@@H](C(=O)O)N(C(=O)C2CC2c2cccs2)[C@H]1c1ccccc1 (some centres unmarked) [III-193]
25 | 100 to 200 | 1000 to 10000 | < 1000 | +++ (≥350) | COc1ccc(C(C)(C)C)cc1CN[C@H]1[C@H](C(C)(C)C)[C@@H](C(=O)O)N(C(=O)c2cnn(-c3cccc(C)c3)c2C(C)C)[C@H]1c1ccccc1 [III-194]
26 | > 200 | < 1000 | < 1000 | +++ (≥350) | COc1ccc(C(C)(C)C)cc1CN[C@H]1[C@H](C(C)(C)C)[C@@H](C(=O)O)N(C(=O)C2CCCCC2C)[C@H]1c1ccccc1 (some centres unmarked) [III-195]
27 | 100 to 200 | < 1000 | < 1000 | +++ (≥350) | COc1ccc(C(F)(F)F)cc1CN[C@H]1[C@H](C(C)(C)C)[C@@H](C(=O)O)N(C(=O)C2CC(C)CC(C)C2)[C@H]1c1ccccc1 (some centres unmarked) [III-196]
28 | 100 to 200 | < 1000 | < 1000 | +++ (≥350) | COc1ccc(C(F)(F)F)cc1CN[C@H]1[C@H](C(C)(C)C)[C@@H](C(=O)O)N(C(=O)C2CCC(C)(C)C2)[C@H]1c1ccccc1 (some centres unmarked) [III-197]
29 | > 200 | 1000 to 10000 | < 1000 | +++ (≥350) | COc1ccc(C(F)(F)F)cc1CN[C@H]1[C@H](C(C)(C)C)[C@@H](C(=O)O)N(C(=O)C2CCC(C)C2)[C@H]1c1ccccc1 (some centres unmarked) [III-198]

Source: US20180099931A1 (AbbVie S.à.r.l., priority 2016, published 2018)
